Measurements: patent US7563787B2, “Substituted pyrazole compounds” (Miikana Therapeutics, Inc., priority 2005, dated 2009)

What was measured:
[1] = tested on: HCT-116 cell growth; assay: Whole Cell Cytotoxicity Assay: Sulforhodamine B; format: cell-based, Human; settings: 100 μM compound, 96 hours, SRB staining; for inhibition at 100 µM: Homo sapiens, HCT-116
Protocol: Human tumor-derived cell lines, HCT116 or MCF7 (ATCC) were plated in a 96 well plate in DMEM containing 10% fetal bovine serum and 2 mM L-glutamine at a density of 500 HCT116 cells or 1,000 MCF7 cells per well and incubated at 37° C., 5% CO2, for 24 hours prior to the addition of experimental compounds. Compounds were added using the dilution series indicated to duplicate plates and the cells were incubated in media plus compound for 96 hours. An additional plate was fixed in 10% TCA at the time of the addition of compound to provide a measurement of the cell population at time zero, the time of drug addition. Following the 96 hour incubation, cells were fixed in situ by gently aspirating off the culture media and then adding 50 ul of ice cold 10% TCA per well and incubation at 4° C. for 60 minutes. The plates were washed with tap water five times and allowed to air dry for 5 minute. 50 ul of a 0.4% (w/v) Sulforhodamine B solution in 1% (v/v) acetic acid was added per well and the cells were incubated for 30 minutes at room temperature. Following staining, plates were washed four times with 1% acetic acid to remove any unbound dye and then allowed to air dry for 5 minutes. The stain was solubilized with 100 ul of 10 mM Tris pH 10.5 per well and placed on an orbital rotator for 5 minutes. The absorbance was read at 570 nm. Percentage growth was calculated using the absorbance readings from the time zero plate (Tz) and the dilution series plate […] which included a column of cells grown in media without compound as a control (C) using the formulas: [(Ti−Tz)/(C−Tz)]×100 for concentrations for which Ti>/=Tz [(Ti−Tz)/Tz]×100 for concentrations for which Ti<Tz.
Three dose response parameters were calculated for each experimental agent. Growth inhibition of 50% (GI50) was calculated from [(Ti−Tz)/(C−Tz)]×100=50, which was the drug concentration resulting in a 50% reduction in the net protein increase (as measured by SRB staining) in control cells during the drug incubation. The drug concentration resulting in total growth inhibition (TGI) was calculated from Ti=Tz. The LC50 (concentration of drug resulting in a 50% reduction in the measured protein at the end of the drug treatment as compared to that at the beginning) indicating a net loss of cells following treatment was calculated from [(Ti−Tz)/Tz]×100=−50. Values are calculated for each of these three parameters if the level of activity was reached; however, if the effect was not reached or was exceeded, the value for that parameter is expressed as greater or less than the maximum or minimum concentration tested.

[2] = target: T1, recombinant Aurora A (Homo sapiens, UniProt O14965); assay: Aurora A (Aurora 2) Inhibition Assay (Z'-Lyte); format: biochemical; settings: 100 μM compound; ATP 10 μM; 1 h
T1 construct: purchased Upstate, Lake Placid, N.Y
T1 sequence (O14965 1-403): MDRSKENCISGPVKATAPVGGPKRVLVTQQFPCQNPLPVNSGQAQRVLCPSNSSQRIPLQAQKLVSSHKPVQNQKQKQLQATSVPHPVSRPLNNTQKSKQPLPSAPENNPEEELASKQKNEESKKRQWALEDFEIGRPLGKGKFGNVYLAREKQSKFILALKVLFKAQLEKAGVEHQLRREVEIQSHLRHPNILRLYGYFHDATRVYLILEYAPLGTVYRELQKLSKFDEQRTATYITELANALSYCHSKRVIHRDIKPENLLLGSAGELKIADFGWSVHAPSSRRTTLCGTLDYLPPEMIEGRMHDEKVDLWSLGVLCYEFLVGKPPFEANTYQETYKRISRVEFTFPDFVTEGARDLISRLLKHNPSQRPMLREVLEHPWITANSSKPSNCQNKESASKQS
Protocol: Compounds were tested for their potency against recombinant Aurora A (Upstate, Lake Placid, N.Y.) using the PanVera Z'-Lyte kinase assay kit-Ser/[…] peptide (Invitrogen, Carlsbad, Calif.). […] Assays were carried out in half-area 96-well white polystyrene assay plates (Corning, Corning, N.Y.) in a final volume of 20 μl. The reaction was allowed to proceed for 1 h at room temperature in the dark, at which point the development reagent and stop reagent were added according to the manufacturer's instructions. Coumarin (Ex. 400 nm, Em. 465 nm) and fluorescein (Ex. 400 nm, Em. 565 nm) fluorescence values were measured on a SpectraFluor Plus plate reader (Tecan, Durham, N.C.). The emission ratio (coumarin/fluorescein) was determined and used to calculate the percent phosphorylation for each well. […] Typically 20-40% of the substrate was phosphorylated in wells without inhibitor. Dose-response curves of relative Aurora A activity vs. inhibitor concentration were plotted with Grafit (Erithacus Software, Horley, Surrey, UK).

% Inhibition of Aurora A @ 100 μM [2] | inhibition at 100 µM [2] | Compound | % Inhibition of HCT-116 cell growth @ 100 μM [1] | inhibition at 100 µM [1]
100% | – | 2-(4-methoxystyryl)-N-(5-methyl-1H-pyrazol-3-yl)-6-(4-methylpiperazin-1-yl)pyrimidin-4-amine [Example 161] | 93% | –
– | 91% | Cc1cc(Nc2nc(/C=C/c3ccccc3)nc(N3CCN(C)CC3)c2[N+](=O)[O-])[nH]n1 [Example 4, 6-(4-methylpiperazin-1-yl)-N-(3-methyl-1H-pyrazol-5-yl)-5-nitro-2-[(E)-2-phenylvinyl]pyrimidin-4-amine] | – | 87%
– | 98% | Cc1cc(Nc2nc(/C=C/c3ccccc3)nc(Nc3cc(C)n[nH]3)c2N)[nH]n1 [Example 11] | – | 99%
– | 100% | Cc1cc(Nc2nc(/C=C/c3ccccc3)nc(N3CCOCC3)c2N)[nH]n1 [Example 12, N-(3-methyl-1H-pyrazol-5-yl)-6-(morpholin-4-yl)-2-[(E)-2-phenylvinyl]pyrimidin-4,5-diamine] | – | 99%
– | 93% | Cc1cc(Nc2nc(/C=C/c3ccccc3)nc(N3CCNCC3)c2N)[nH]n1 [Example 13, N-(3-methyl-1H-pyrazol-5-yl)-6-(piperazin-1-yl)-2-[(E)-2-phenylvinyl]pyrimidin-4,5-diamine] | – | –
– | 98% | Cc1cc(Nc2nc(/C=C/c3ccccc3)nc(N3CCCCC3)c2N)[nH]n1 [Example 14, N-(3-methyl-1H-pyrazol-5-yl)-6-(piperidin-1-yl)-2-[(E)-2-phenylvinyl]pyrimidin-4,5-diamine] | – | –
– | 100% | Cc1cc(Nc2nc(/C=C/c3ccccc3)nc(N3CCCC3)c2N)[nH]n1 [Example 15, N-(3-methyl-1H-pyrazol-5-yl)-6-(pyrrolidin-1-yl)-2-[(E)-2-phenylvinyl]pyrimidin-4,5-diamine] | – | 91%
– | 62% | CCOC(=O)c1nc(/C=C/c2ccccc2)nc(Nc2cc(C)n[nH]2)c1[N+](=O)[O-] [Example 17, ethyl 6-[(3-methyl-1H-pyrazol-5-yl)amino]-5-nitro-2-[(E)-2-phenylvinyl]pyrimidine-4-carboxylate] | – | 93%
– | 99% | CCOC(=O)c1nc(/C=C/c2ccc(Cl)cc2)nc(Nc2cc(C)n[nH]2)c1N [Example 19, ethyl 5-amino-2-[(E)-2-(4-chlorophenyl)vinyl]-6-[(3-methyl-1H-pyrazol-5-yl)amino]pyrimidine-4-carboxylate] | – | 96%
– | 77% | CCOC(=O)c1nc(/C=C/c2ccc(C(F)(F)F)cc2)nc(Nc2cc(C)n[nH]2)c1N [Example 20, ethyl 5-amino-6-[(3-methyl-1H-pyrazol-5-yl)amino]-2-{(E)-2-[4-(trifluoromethyl)phenyl]vinyl}pyrimidine-4-carboxylate] | – | 97%
– | 100% | CCOC(=O)c1nc(/C=C/c2ccc(C)cc2)nc(Nc2cc(C)n[nH]2)c1N [Example 21, ethyl 5-amino-2-[(E)-2-(4-methylphenyl)vinyl]-6-[(3-methyl-1H-pyrazol-5-yl)amino]pyrimidine-4-carboxylate] | – | 93%
– | 97% | CCOC(=O)c1nc(/C=C/c2cccc(F)c2)nc(Nc2cc(C)n[nH]2)c1N [Example 22, ethyl 5-amino-2-[(E)-2-(3-fluorophenyl)vinyl]-6-[(3-methyl-1H-pyrazol-5-yl)amino]pyrimidine-4-carboxylate] | – | 85%
– | 99% | CCOC(=O)c1nc(/C=C/c2ccc(OC)cc2)nc(Nc2cc(C)n[nH]2)c1N [Example 23, ethyl 5-amino-2-[(E)-2-(4-methoxyphenyl)vinyl]-6-[(3-methyl-1H-pyrazol-5-yl)amino]pyrimidine-4-carboxylate] | – | 91%
– | 100% | Cc1cc(Nc2nc(/C=C/c3ccccc3)nc(C(=O)OC3CCN(C)CC3)c2N)[nH]n1 [Example 24, 1-methylpiperidin-4-yl 5-amino-6-[(3-methyl-1H-pyrazol-5-yl)amino]-2-[(E)-2-phenylvinyl]pyrimidine-4-carboxylate] | – | 99%
– | 100% | Cc1cc(Nc2nc(/C=C/c3ccccc3)nc(C(=O)NCCN3CCOCC3)c2N)[nH]n1 [Example 25, N-(2-morphholin-4-ylethyl)-5-amino-6-[(3-methyl-1H-pyrazol-5-yl)amino]-2-[(E)-2-phenylvinyl]pyrimidine-4-carboxamide] | – | 95%
– | 99% | Cc1cc(Nc2cc(Cl)nc(/C=C/c3ccccc3)n2)n[nH]1 [Example 34, 6-chloro-N-(3-methyl-1H-pyrazol-5-yl)-2-[(E)-2-phenylvinyl]pyrimidin-4-amine] | – | 98%
– | 80% | COC(=O)c1ccc(/C=C/c2nc(Cl)c([N+](=O)[O-])c(Nc3cc(C)[nH]n3)n2)cc1 [Example 37, methyl 4-((E)-2-{4-chloro-6-[(3-methyl-1H-pyrazol-5-yl)amino]-5-nitropyrimidin-2-yl}vinyl)benzoate] | – | –
– | 99% | COC(=O)c1ccc(/C=C/c2nc(Nc3cc(C)[nH]n3)c([N+](=O)[O-])c(N3CCN(C)CC3)n2)cc1 [Example 38, methyl 4-((E)-2-{4-(4-methylpiperazin-1-yl)-6-[(3-methyl-1H-pyrazol-5-yl)amino]-5-nitropyrimidin-2-yl}vinyl)benzoate] | – | –
– | 100% | COC(=O)c1ccc(/C=C/c2nc(Nc3cc(C)[nH]n3)c(N)c(N3CCN(C)CC3)n2)cc1 [Example 39, methyl 4-((E)-2-{5-amino-4-(4-methylpiperazin-1-yl)-6-[(3-methyl-1H-pyrazol-5-yl)amino]-pyrimidin-2-yl}vinyl)benzoate] | – | 97%
– | 100% | Cc1cc(Nc2cc(N3CCN(C)CC3)nc(/C=C/c3ccc(Cl)cc3)n2)n[nH]1 [Example 49, 2-(4-chlorostyryl)-N-(5methyl-1H-pyrazol-3-yl)-6-(4-methylpiperazin-1-yl)pyrimidin-4-amine] | – | 75%
– | 100% | COc1cc(/C=C/c2nc(Nc3cc(C)[nH]n3)cc(N3CCN(C)CC3)n2)cc(OC)c1 [Example 50, 2-(3,5-dimethoxystyryl)-N-(5-methyl-1H-pyrazol-3-yl)-6-(4-methylpiperazin-1-yl)pyrimidin-4-amine] | – | 98%
– | 100% | Cc1cc(Nc2cc(N3CCOCC3)nc(/C=C/c3ccccc3)n2)n[nH]1 [Example 64, N-(5-methyl-1H-pyrazol-3-yl)-6-morpholino-2-styrylpyrimidin-4-amine] | – | 98%
– | 100% | Cc1cc(Nc2cc(NCCN(C)C)nc(/C=C/c3ccccc3)n2)n[nH]1 [Example 66, N^4-(2-(dimethylamino)ethyl)-N^6-(5-methyl-1H-pyrazol-3-yl)-2-styrylpyrimidine-4,6-diamine] | – | 98%
– | 95% | Cc1ccc(/C=C/c2nc(Nc3cc(C)[nH]n3)c([N+](=O)[O-])c(N3CCN(C)CC3)n2)cc1 [Example 169] | – | –
– | 89% | Cc1cc(Nc2nc(/C=C/c3ccc(Cl)cc3)nc(N3CCN(C)CC3)c2[N+](=O)[O-])n[nH]1 [Example 171] | – | –
